From the NIST ThermoML archive (doi:10.1016/j.tca.2019.03.028)
± gives the expanded uncertainty stated by the source.

Key:
[1] = relative permittivity at various frequencies (dimensionless); settings: 293.15 K; 100 kPa; Liquid; Frequency=0.01 MHz; Coaxial cylinder capacitor
[2] = relative permittivity at various frequencies (dimensionless); wn = mass fraction of the nth substance listed; settings: 293.15 K, 100 kPa, Liquid, Frequency=0.01 MHz, Coaxial cylinder capacitor

SMILES	relative permittivity [1]	relative permittivity ([2]; w1 = 1)	relative permittivity ([2]; w2 = 0)	other results
CC#N [acetonitrile]	37.7 ± 1.7			
CC#N [acetonitrile] + ClC(Cl)(Cl)Cl		37.7 ± 1.7		
CC#N [acetonitrile] + c1ccccc1		37.7 ± 1.7		relative permittivity ([2]; w1 = 0.25): 10.21 ± 0.49; relative permittivity ([2]; w1 = 0.5): 19.8 ± 0.93; relative permittivity ([2]; w1 = 0.75): 28.5 ± 1.3
c1ccccc1 [benzene]	2.29 ± 0.13			
c1ccccc1 [benzene] + C1CCCCC1			2.29 ± 0.13	
c1ccccc1 [benzene] + CC#N			2.29 ± 0.13	
C1CCCCC1 [cyclohexane]	2.02 ± 0.12			
C1CCCCC1 [cyclohexane] + c1ccccc1		2.02 ± 0.12		relative permittivity ([2]; w1 = 0.25): 2.2 ± 0.13; relative permittivity ([2]; w1 = 0.5): 2.13 ± 0.13; relative permittivity ([2]; w1 = 0.75): 2.07 ± 0.12
ClC(Cl)(Cl)Cl [tetrachloromethane]	2.23 ± 0.13			
ClC(Cl)(Cl)Cl [tetrachloromethane] + CC#N			2.23 ± 0.13	relative permittivity ([2]; w2 = 0.25): 14.96 ± 0.71; relative permittivity ([2]; w2 = 0.5): 25.7 ± 1.2; relative permittivity ([2]; w2 = 0.75): 34.2 ± 1.6
